Results on four compounds are retold here after PMC9260081, “Design, Synthesis, and Evaluation of Anticonvulsant Activities of New Triazolopyrimidine Derivatives” (Frontiers in Chemistry, 2022).

Where “and” joins values, the source holds several entries; their conditions need not be identical. Equal entries are not always repeated. Where two headings read alike, the source gives them in different places. Marks after values point to notes of the source that are not given here.

One data set has as its system MES-induced seizures. Put plainly: Maximal electroshock seizure (MES) test. The class given is in vivo, mice. The conditions noted are these: for minimal effective dose / ED50: Mus musculus, ip, mice; for minimal effective dose: dosages 30, 100, 300 mg/kg, read-out: MES screening, minimum dose whereby bioactivity was demonstrated in half or more of the mice; for MES model, number of animals protected/number of animals tested: 30 mg/kg, 0.5 h; for ED50: 95% confidence interval in brackets, read-out: ED50 MES; for PI MES, protective index (TD50/ED50): TD50 rotarod / ED50 MES, mice i.p. Here is the method: (§1) Male Kunming mice with weights from 18 to 22 g were used in all the pharmacological experiments. The mice were housed in the standard cages with 10 each, where a controlled temperature (25°C ± 2°C) with a 12 h light/dark cycle was maintained. All animals had free access to food and water. All experiments and procedures involving animals were carried out according to the Guide for the Care and Use of Laboratory Animals (National Academies Press, Washington, D.C., United States). Approval from the local medical ethical committee was obtained before the experiment.
In the MES test, mice were subjected to ear stimulation using a 0.2 s 60-Hz 50-mA alternating current to elicit seizures. Tonic hind limb extension was considered as the seizure occurring, and the vanishing of tonic hind limb extension indicates the protection against the MES-induced seizures. Mice were injected intraperitoneally with test compounds at doses of 300, 100, and 30 mg/kg to evaluate their general anticonvulsant activity. Half and 4 h intervals were chosen to test the anti-MES activity. […] A series of doses of the tested compounds were injected into the mice with 10 in one group.
A general note: In the maximal electroshock model the usual endpoint is tonic extension of the hind limbs.

The subject of another data set is PTZ-induced seizures. The experiment in a line: Subcutaneous pentylenetetrazole (PTZ) test. The class given is in vivo, mice. Conditions: for minimal effective dose / ED50: Mus musculus, mice; for minimal effective dose / ED50 / PI scPTZ, protective index (TD50/ED50): ip; for minimal effective dose: dosages 30, 100, 300 mg/kg, read-out: PTZ screening, minimum dose whereby bioactivity was demonstrated in half or more of the mice; for PTZ model, number of animals protected/number of animals tested: 30 mg/kg, 0.5 h; for ED50: 95% confidence interval in brackets, read-out: ED50 scPTZ; for PI scPTZ, protective index (TD50/ED50): male, Kunming, mouse, in vivo. Here is the method: as §1
In the PTZ test, mice were subcutaneously administered with PTZ at the dose of 85 mg/kg. At this dose, mice can be elicited a threshold seizure characterized by an episode of clonic spasms and tonic spasms. After being treated with test compounds at doses of 300, 100, and 30 mg/kg, the mice were considered protected if a single episode of clonic spasms of more than 5 s duration was not obtained. The quantitative anticonvulsant activity (ED50) in the PTZ model was determined and calculated with the same method described in the MES test.

The test system of data set [1] is ability to maintain equilibrium on rotating rod. The experiment in a line: Neurotoxicity screening (rotarod test). The class given is in vivo. The conditions noted are these: i.p., dosages 30, 100, 300 mg/kg. The protocol: as §1
(§2) The rotarod test was used to evaluate the neurotoxicity of the synthesized compounds. Before the formal experiments, mice were trained to climb on a rotating rod of diameter 3.2 cm with the rotation speed of 10 rpm. Test compounds in the three doses were intraperitoneally injected into the trained mice. […] The rough neurotoxic dose was obtained in which mice cannot maintain equilibrium on the rod for at least 1 min. The quantitative neurotoxic dose (TD50) of the test compounds was measured and calculated with the same method described in the MES test.

Data set [2] can be described thus: Neurotoxicity screening (rotarod test). The conditions noted are these: male, Kunming, mouse, in vivo, ip; rotarod, mice; 95% confidence interval in brackets. The class given is in vivo. The protocol:
as §1, §2

Another data set relates to BIC-induced seizures. The experiment in a line: Bicuculline (BIC)-induced seizure test. The class given is in vivo. The conditions noted are these: BIC 5.4 mg/kg, compound 30 mg/kg, test time 0.5 h, percentage of animals, 10 mice. Here is the method:
as §1
In the BIC-induced seizure test, groups of 10 mice were administered with 30 mg/kg of test samples or vehicle. Then, 30 min later, the minimum dose of BIC (5.4 mg/kg) that could completely induce seizures for mice was subcutaneously injected into the test mice. The mice were placed into separate cages each, and the number of clonic seizures, tonic seizures, and mortality was recorded for 30 min.

Another data set addresses GABAA BZD receptor. Put plainly: Radioligand receptor binding assay ([3H]-flumazenil competition). The conditions noted are these: rat brain membranes.
Another data set relates to 3-MP-induced seizures. Put plainly: 3-Mercaptopropionic acid (3-MP)-induced seizure test. The class given is in vivo. The conditions noted are these: 3-MP 60 mg/kg; compound 30 mg/kg, test time 0.5 h; percentage of animals, 10 mice. The protocol: as §1
In 3-MP–induced seizure test, groups of 10 mice were administered with 30 mg/kg of test samples or vehicle. After 30 min, the minimum dose of 3-MP (60 mg/kg) that could completely induce seizures for mice was intraperitoneally injected into the test mice. The mice were placed into separate cages each, and the number of clonic seizures, tonic seizures, and mortality was recorded for 30 min.

Setting [3] is: pretreated with flumazenil (FMZ) 10 mg/kg 15 min before seizure induction.
Setting [4] is: pretreated with thiosemicarbazide (TSC) 25 mg/kg/day for 3 days.

As usually defined, the melting point is the temperature, or range, at which the solid turns liquid. For `Clc1ccccc1-c1ccnc2ncnn12` [Compound 3c, 7-(2-Chlorophenyl)-[1,2,4]triazolo[1,5-a]pyrimidine], the melting point was in the range of 148 to 149 °C. Further, the minimal effective dose in the data set on MES-induced seizures (0.5 h after injection) stood at 100 mg/kg. In addition, the minimal effective dose with MES-induced seizures (4 h after injection) is > 300 mg/kg. In the data set on PTZ-induced seizures (0.5 h after injection), the minimal effective dose turned out to be 100 mg/kg. Besides, the minimal effective dose in the data set on PTZ-induced seizures (4 h after injection) is > 300 mg/kg. In data set [1] (0.5 h after injection), the “NT screening (rotarod), minimum neurotoxic dose in half or more of the mice” value (from here on “NT screening (rotarod)”) is “— (A dash indicates the absence of anticonvulsant activity and neurotoxicity at the maximum dose administered (300 mg/kg))”. In addition, in data set [1] (4 h after injection), the “NT screening (rotarod)” value was “— (A dash indicates the absence of anticonvulsant activity and neurotoxicity at the maximum dose administered (300 mg/kg))”.
For `c1ccc(-c2ccnc3ncnn23)cc1` [Compound 3a, 7-Phenyl-[1,2,4]triazolo[1,5-a]pyrimidine], the melting point lay in the range of 142 to 143 °C. Moreover, the minimal effective dose in the data set on MES-induced seizures (0.5 h after injection) is 300 mg/kg. Moreover, in the data set on MES-induced seizures (4 h after injection), the minimal effective dose was > 300 mg/kg. The minimal effective dose in the data set on PTZ-induced seizures (0.5 h after injection) came out at 100 mg/kg. Also, in the data set on PTZ-induced seizures (4 h after injection), the minimal effective dose was > 300 mg/kg. The “NT screening (rotarod)” value in data set [1] (0.5 h after injection) was “— (A dash indicates the absence of anticonvulsant activity and neurotoxicity at the maximum dose administered (300 mg/kg))”. In addition, the “NT screening (rotarod)” value in data set [1] (4 h after injection) was “— (A dash indicates the absence of anticonvulsant activity and neurotoxicity at the maximum dose administered (300 mg/kg))”.
What is called ED50 is the midpoint of the dose-response relation. Usually TD50 stands for the 50% point of the dose-response relation for the toxic effect studied. What is called IC50 is the point on the concentration scale where inhibition reaches its midpoint. Read a high IC50 as lower potency. Usually Ki stands for the equilibrium dissociation constant of an inhibitor or competing ligand from its target. Read a high Ki as lower affinity. As to `CCCCCCOc1ccc(-c2ccnc3ncnn23)cc1` [Compound 6d, 7-(4-(Hexyloxy)phenyl)-[1,2,4]triazolo[1,5-a]pyrimidine], the “MES model, number of animals protected/number of animals tested” value in the data set on MES-induced seizures (setting [3]) is “completely reversed and 0/5***”; in the data set on MES-induced seizures (setting [4]), “completely reversed and 0/5***”; in the data set with MES-induced seizures (pretreatment with saline) it was “full protection and completely protected and 5/5 ^c and 5/5”. The minimal effective dose in the data set with MES-induced seizures (0.5 h after injection) was 30 mg/kg; in the data set on MES-induced seizures (4 h after injection) it was 100 mg/kg; in the data set with PTZ-induced seizures (0.5 h after injection), 30 mg/kg; in the data set with PTZ-induced seizures (4 h after injection) it was > 300 mg/kg. The results for the ED50 in the data set on MES-induced seizures and with PTZ-induced seizures were 15.8 mg/kg and 14.1 mg/kg, respectively. For the same compound, in the data set on MES-induced seizures, the “PI MES, protective index (TD50/ED50)” value is recorded as 20.1. Also, the “PTZ model, number of animals protected/number of animals tested” value in the data set on PTZ-induced seizures (setting [3]) is “completely reversed and 0/5***”; in the data set on PTZ-induced seizures (setting [4]), “completely reversed and 0/5***”; with PTZ-induced seizures (pretreatment with saline) it was “full protection and 5/5”. Also, the “PI scPTZ, protective index (TD50/ED50)” value in the data set on PTZ-induced seizures amounted to 22.5. The TD50 at 30 min in data set [2] came to 317 mg/kg. Besides, the “NT screening (rotarod)” value is 300 mg/kg in data set [1] (0.5 h after injection); “— (A dash indicates the absence of anticonvulsant activity and neurotoxicity at the maximum dose administered (300 mg/kg))” in data set [1] (4 h after injection). Moreover, the “Clonic seizure (%)” value with BIC-induced seizures came out at 10%. Further, in the data set on BIC-induced seizures, the “Lethality (%)” value is 0%. The “Tonic seizure (%)” value in the data set with BIC-induced seizures turned out to be 0%. Also, at GABAA BZD receptor (competition with 0.5 nM [3H]-flumazenil, 95% CI in brackets), the IC50 is 8.4 nM. For the same compound, the Ki at GABAA BZD receptor (competition with [3H]-flumazenil, Cheng–Prusoff) was 3.9 nM.
Turning to `NC(=O)N1c2ccccc2C=Cc2ccccc21` [Carbamazepine, reference compound], in the data set on MES-induced seizures, the ED50 turned out to be 9.8 mg/kg and the “PI MES, protective index (TD50/ED50)” value was found to be 4.5. Besides, in the data set with PTZ-induced seizures, the ED50 was > 100 mg/kg and the “PI scPTZ, protective index (TD50/ED50)” value is <0.44. The TD50 at 30 min in data set [2] was found to be 44 mg/kg. Further, in the data set on 3-MP-induced seizures, the “Clonic seizure (%)” value is recorded as 100%, the “Lethality (%)” value is listed as 0** % and the “Tonic seizure (%)” value is 0*** %. For the same compound, in the data set on BIC-induced seizures, the “Clonic seizure (%)” value stood at 100%, the “Lethality (%)” value was 20** % and the “Tonic seizure (%)” value is listed as 0*** %. In the data set on BIC-induced seizures (listed as carbamazepine), the “Lethality (%)” value was “significantly inhibited” and the “Tonic seizure (%)” value is “significantly inhibited”.
